Data: PMC9706033 (Journal of Microbiology and Biotechnology, 2021)
Read-outs that look alike come from different tables or passages of the source.

Experiments:
[1] = Water solubility determination (UPLC of supernatant); assay type: physicochemical
Method: Each sample was centrifuged at 16,000 g for 30 min. Subsequently, the supernatant of each sample was filtered, and the concentration of the compound in the supernatant as a water-soluble component was estimated by UPLC analysis.

tyrosinase [2] = target: T1, tyrosinase (Mus musculus, UniProt P11344); experiment: Cellular tyrosinase activity in α-MSH-stimulated B16F10 melanoma cells; assay type: cell-based; conditions: 48 h; for inhibition at 300 µM: B16-F10
T1 construct: endogenous in cells; host or cells: B16F10 melanoma cells, α-MSH-stimulated
T1 sequence (P11344 19-533): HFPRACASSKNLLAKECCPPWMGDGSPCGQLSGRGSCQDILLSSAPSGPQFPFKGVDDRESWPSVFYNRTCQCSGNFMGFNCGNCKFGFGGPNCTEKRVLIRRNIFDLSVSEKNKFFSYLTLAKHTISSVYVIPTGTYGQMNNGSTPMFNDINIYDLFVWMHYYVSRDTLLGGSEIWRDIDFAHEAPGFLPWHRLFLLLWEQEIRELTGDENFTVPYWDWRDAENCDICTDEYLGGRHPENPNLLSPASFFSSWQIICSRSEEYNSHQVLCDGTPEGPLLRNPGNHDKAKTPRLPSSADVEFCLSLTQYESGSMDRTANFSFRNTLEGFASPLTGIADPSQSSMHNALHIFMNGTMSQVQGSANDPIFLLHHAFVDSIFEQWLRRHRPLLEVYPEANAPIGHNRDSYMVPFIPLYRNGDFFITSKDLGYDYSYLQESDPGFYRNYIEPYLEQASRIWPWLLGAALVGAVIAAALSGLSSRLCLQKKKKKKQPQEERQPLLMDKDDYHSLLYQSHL

B16F10 melanoma cells [3] = experiment: Cellular melanin content in α-MSH-stimulated B16F10 melanoma cells; assay type: cell-based; conditions: 72 h
Method: Cellular melanin content was determined by the method of Park et al. with minor modifications. The cells (5 × 10^4 cells/well) were seeded into 6-well plates and cultured for 24 h. […] Then, the cells were washed with PBS and lysed with lysis buffer, and the supernatant was removed by centrifugation at 16,000 g for 15 min at 4°C. The protein concentration of the supernatant was determined by the Bradford method. The pellet was dissolved in 1 M NaOH and measured at 405 nm using a microplate reader.

[4] = Stability against oxidative degradation in buffer solutions and cell culture medium; assay type: physicochemical; conditions: 37°C, up to 72 h, read-out: Half-life, t1/2 (converted)
polyphenol oxidases = conditions: cited from earlier work
[5] = humans; cited from earlier work
B16F10 cells = experiment: Cellular uptake assay (UPLC of medium and cell lysates); assay type: cell-based; conditions: after 24 h incubation with B16F10 cells; resveratrol 20 μM, glucosides 100 μM
Method: The cellular uptake assay was conducted following the method described by Moon et al. with minor modification. The B16F10 cells (2 × 10^5 cells/well) were seeded into 6-well plates. […] After 24 h of incubation, the medium was removed, and the cells were washed with PBS and then scraped off. […] The lysate was centrifuged at 16,000 g for 10 min and filtered by a 0.2 μm syringe filter. The cell extracts were analyzed by UPLC.

[6] = DPPH free-radical scavenging assay
Method: DPPH free-radical scavenging capability and ferric reducing antioxidant power (FRAP) assay results were evaluated as described previously by Moon et al.. Hydroxy radical-scavenging assay was measured as described by Su et al.. Vitamin C was used as a positive control. Each assay was measured from 1 min to 30 h. The DPPH radical-scavenging activity was calculated as follows: DPPH radical-scavenging activity (%) = (1-Asample/Ablank) × 100, where Asample is the absorbance in the presence of the sample, and Ablank is the absorbance of the blank. Hydroxy radical-scavenging activity was calculated in accordance with the following formula: Hydroxy radical scavenging activity (%) = (Asample-Acontrol)/(Ablank-Acontrol) × 100, where Asample is the absorbance in the presence of the sample, Acontrol is the absorbance of the blank with H2O2, and Ablank is the absorbance of the blank without H2O2.

[7] = Hydroxyl radical scavenging assay
B16F10 melanoma cells [8] = assay type: cell-based; conditions: mouse, 24 h
Method: Cell culture and cell viability assay. B16F10 melanoma cells were maintained in DMEM supplemented with 10% FBS, 100 U/ml penicillin, and 100 μg/ml streptomycin. The cells were cultured at 37°C under 5% CO2 in a humidified culture chamber. Cell viability was determined by 3-(4,5-dimethythiazol-2-yl)-2,5-diphenyl tetrazolium bromide (MTT) assay. The cells (6 × 10^3 cells/well) were seeded into 96-well plates and cultured for 24 h. […] After 24 h, the cells were washed with PBS, MTT reagent (0.5 mg/ml) was added to each well, and the cells were incubated at 37°C for 1 h. The supernatant in each well was discarded for the treatment with DMSO, which was used to dissolve the formazan crystals formed from viable cells. After the DMSO treatment, the absorbance of each well was measured at 595 nm using a microplate reader (Epoch, Biotek, USA).

[9] = set-up: method as in PMID 9599270; conditions: read-out: Antioxidant activity IC50; cited from earlier work
tyrosinase [10] = test system: tyrosinase; set-up: method as in PMID 7765966; conditions: tyrosinase of B16 mouse melanoma; cited from earlier work
[11] = distilled water, sonicated 1 h at room temperature
[12] = 100 μM, α-MSH-stimulated B16F10
[13] = Buffer pH 2.0 (hydrochloric acid)
[14] = DMEM cell culture medium without FBS, DMEM (without FBS)
[15] = phosphate-buffered saline, PBS (pH 7.4)
[16] = simulated body fluid, SBF (pH 7.4)

OC[C@H]1O[C@H](Oc2ccc(C=Cc3cc(O)cc(O)c3)cc2)[C@H](O)[C@@H](O)[C@@H]1O [R1, resveratrol-4′-O-α-glucoside]
Water solubility [1, 11]: 515 µg/mL
Water solubility (molar) [1, 11]: 1319 µM

OC[C@H]1O[C@H](Oc2cc(O)cc(C=Cc3ccc(O)cc3)c2)[C@H](O)[C@@H](O)[C@@H]1O [R2, resveratrol-3-O-α-glucoside]
Water solubility [1]: 471 µg/mL
Water solubility (molar) [1]: 1206 µM

OC[C@H]1O[C@@H](Oc2ccc(O)cc2)[C@H](O)[C@@H](O)[C@@H]1O [arbutin]
Suppression of tyrosinase activity (tyrosinase [2]; [12]): 15.8%
inhibition at 300 µM (tyrosinase [2]; α-MSH-stimulated B16F10): 25.6%
Suppression of melanin synthesis (B16F10 melanoma cells [3]; 100 μM): 51.2%
Suppression of melanin synthesis (B16F10 melanoma cells [3]; 300 μM): 74.5%

Oc1ccc(/C=C/c2cc(O)cc(O)c2)cc1 [resveratrol, trans-3,5,4′-trihydroxystilbene]
half-life at 10 mM [4, 13]: > 72 h
half-life at 10 mM ([4]; Buffer pH 9.0 (Tris-HCl)): 1.5 h
half-life at 10 mM [4, 14]: > 72 h
half-life at 10 mM [4, 15]: 28 h
half-life at 10 mM [4, 16]: 44 h
Half-life (t1/2) in the reaction of polyphenol oxidases compared with piceid (polyphenol oxidases): three times shorter
Oral bioavailability [5]: less than 1%
Suppression of tyrosinase activity (tyrosinase [2]; 20 μM, compared with cells treated with MSH alone): 70.5%
Amount remaining in the extracellular medium (B16F10 cells): 59 % of the initial amount
EC50 ([6]; at 30 min): 523 µM
EC50 ([6]; at 5 h): 118 µM
Water solubility [1, 11]: 36 µg/mL
solubility at 1 h ([1]; distilled water, sonicated 1 h at room temperature, read-out: Water solubility (molar)): 157.7 µM
EC50 ([7]; at 30 min): 138 µM
Effect on growth of B16F10 cells (B16F10 melanoma cells [8]): inhibited the growth of B16F10 cells in a dose-dependent manner

OC[C@H]1O[C@@H](Oc2ccc(/C=C/c3cc(O)cc(O)c3)cc2)[C@H](O)[C@@H](O)[C@@H]1O [resveratrol-4′-O-β-glucoside]
IC50 [9]: 1000 µM

O=C1O[C@H]([C@@H](O)CO)C(O)=C1O [vitamin C]
Time to scavenge the DPPH radical [6]: ≤ 30 min

OC[C@H]1O[C@H](Oc2ccc(O)cc2)[C@H](O)[C@@H](O)[C@@H]1O [α-arbutin]
Inhibitory activity, times as strong as that of β-arbutin (tyrosinase [10]): 10 times

OC[C@H]1O[C@@H](Oc2cc(O)cc(/C=C/c3ccc(O)cc3)c2)[C@H](O)[C@@H](O)[C@@H]1O [β-piceid]
half-life at 10 mM [4, 13]: > 72 h
half-life at 10 mM ([4]; Buffer pH 9.0 (Tris-HCl)): > 72 h
half-life at 10 mM [4, 14]: > 72 h
half-life at 10 mM [4, 15]: > 72 h
half-life at 10 mM [4, 16]: > 72 h
Suppression of tyrosinase activity (tyrosinase [2]; [12]): 19.2%
inhibition at 300 µM (tyrosinase [2]; α-MSH-stimulated B16F10): 29.7%
Suppression of melanin synthesis (B16F10 melanoma cells [3]; 100 μM): 36.5%
Suppression of melanin synthesis (B16F10 melanoma cells [3]; 300 μM): 46.3%
EC50 ([6]; at 30 min): 441 µM
EC50 ([6]; at 5 h): 699 µM
solubility at 1 h ([1]; thermodynamic from solid, distilled water, sonicated 1 h at room temperature, read-out: Water solubility): 137 µg/mL
solubility at 1 h ([1]; thermodynamic from solid, distilled water, sonicated 1 h at room temperature, read-out: Water solubility (molar)): 351 µM
EC50 ([7]; at 30 min): 215 µM
EC50 ([7]; at 5 h): 53.7 µM
Concentration affecting proliferation of B16F10 cells (B16F10 melanoma cells [8]): above 100 μM
IC50 [9]: 198 µM
